The text below walks through data of EP0088621A2, “Compositions for use in accelerating onset of sleep” (MASSACHUSETTS INSTITUTE OF TECHNOLOGY, priority 1982, dated 1983).

On the set-up of the data set: species or system Normal adult volunteers. The settings on record: in vivo. Here is the method: Normal adult volunteers consumed 1 g of tryptophan; with or without 10 g of glucose; blood samples were assayed for tryptophan, LNAA, and their ratio after various intervals. Control subjects received only the tryptophan. The results are shown in Table I, 1 hour after administration.

As for `OC[C@H]1OC(O)[C@H](O)[C@@H](O)[C@@H]1O` (stereo partly shown) [glucose], the “increase of the plasma tryptophan/LNAA ratio by glucose” value is given as 40-50%.
